Earlier results as cited in patent US20180133151A1, “NEBULIZED TIOTROPIUM” (GLENMARK SPECIALTY S.A., priority 2016, published 2018).

- Solubility in methanol (methanol): soluble
- Solubility in water (water): sparingly soluble
SMILES: C[N+]1(C)C2CC(OC(=O)C(O)(c3cccs3)c3cccs3)CC1C1OC12 (stereo not drawn) [Tiotropium bromide, (1+,2β,4β,7β)-7-[(hydroxydi-2-thienylacetyl)oxy]-9,9-dimethyl-3-oxa-9-azoniatricyclo[3.3.1.02,4]nonane bromide]
